Experimental data as given in patent US8541567B2, “Transition state structure of 5′-methylthioadenosine/s-adenosylhomocysteine nucleosidases” (Albert Einstein College of Medicine of Yeshiva University, priority 2005, dated 2013).
Entries after “also recorded” stand apart in the source; their conditions may differ.

What was measured:
E. coli MTAN [1] = target: T1, E. coli MTAN (Escherichia coli, UniProt P0AF12); conditions: cited from earlier work; for substrate activity: result in words
T1 construct: consists of 232 amino acids belonging to E. coli MTAN and 10 residues from the N-terminal histidine fusion tag; histidine tag (N, cleaved yes); made in house

[2] = 9-deazapurine ring; cited from earlier work
E. coli MTAN [3] = target: T1, E. coli MTAN; assay: Slow-onset inhibition of E. coli MTAN by transition state analogues; type: biochemical; conditions: Kd 47 fM versus Km 4.3 μM
E. coli MTAN [4] = target: T1, E. coli MTAN; conditions: overall / equilibrium dissociation constant; read-out: dissociation constant (Kd) following slow-onset inhibition, or Ki*; cited from earlier work

T1 sequence (P0AF12 whole entry, the tested form may be a part): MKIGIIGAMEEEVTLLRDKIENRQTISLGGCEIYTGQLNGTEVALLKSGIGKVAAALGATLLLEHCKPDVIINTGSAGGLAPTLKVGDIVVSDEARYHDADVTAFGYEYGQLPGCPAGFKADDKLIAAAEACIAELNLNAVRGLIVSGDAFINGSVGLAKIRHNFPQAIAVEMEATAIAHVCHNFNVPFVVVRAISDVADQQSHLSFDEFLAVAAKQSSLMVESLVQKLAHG

CSC[C@H]1O[C@@H](n2cnc3c(N)ncnc32)C[C@@H]1O [2′-deoxy-MTA]
catalytic activity retained (E. coli MTAN [1]; relative to MTA): 85%
substrate activity (E. coli MTAN [1]): good substrate

CSC[C@@H]1C[C@@H](O)[C@H](n2cnc3c(N)ncnc32)O1 [3′-deoxy-MTA]
substrate activity (E. coli MTAN [1]): is not; also recorded: not a substrate

Nc1ncnc2cc[nH]c12 [9-deazaadenine]
pKa at N7 [2]: > 10

Nc1ncnc2c1ncn2[C@@H]1O[C@H](CSCC[C@H](N)C(=O)O)[C@@H](O)[C@H]1O [S-adenosylhomocysteine]
Km (E. coli MTAN [1]; substrate S-adenosylhomocysteine): 4.3 µM

Nc1ncnc2c(CN3C[C@H](CSc4ccc(Cl)cc4)[C@@H](O)C3)c[nH]c12 [pC1PhT-DADMe-ImmA, (3R,4S)-4-(4-chlorophenylthiomethyl)-1-[(9-deazaadenin-9-yl]methyl)-3-hydroxypyrrolidine]
binds tighter than the substrate S-adenosylhomocysteine (E. coli MTAN [3]): 91 million

(1S)-1-(9-deazaadenin-9-yl)-1,4-dideoxy-1,4-imino-5-methylthio-D-ribitol [MT-ImmA]
Kd (E. coli MTAN [4]): 0.077 nM
